ChEMBL document CHEMBL1201862, “PubChem BioAssay data set” (2004)
The source made the active and inactive calls.

Key:
DNA topoisomerase = DNA topoisomerase (Yersinia pestis, UniProt A0A2S9PM60); assay: Yersinia topoisomerase I cleavage product accumulation – biochemical, cherry-pick, dose response (AID 588525)
Hexokinase-1 = Hexokinase-1 (Homo sapiens, UniProt P19367); assay: SAR analysis of small molecule inhibitors of hexokinase domain containing I (HKDC1) in the hexokinase 1 selectivity assay. [Related pubchem assays (depositor defined):AID493160, AID493190]; assay type: functional
Hexokinase HKDC1 = Hexokinase HKDC1 (Homo sapiens, UniProt Q2TB90); assay: SAR analysis of small molecule inhibitors of hexokinase domain containing I (HKDC1). [Related pubchem assays (depositor defined):AID493160, AID493190]; assay type: functional
Chain of Hexokinase HKDC1 (Q2TB90 whole entry, the tested form may be a part): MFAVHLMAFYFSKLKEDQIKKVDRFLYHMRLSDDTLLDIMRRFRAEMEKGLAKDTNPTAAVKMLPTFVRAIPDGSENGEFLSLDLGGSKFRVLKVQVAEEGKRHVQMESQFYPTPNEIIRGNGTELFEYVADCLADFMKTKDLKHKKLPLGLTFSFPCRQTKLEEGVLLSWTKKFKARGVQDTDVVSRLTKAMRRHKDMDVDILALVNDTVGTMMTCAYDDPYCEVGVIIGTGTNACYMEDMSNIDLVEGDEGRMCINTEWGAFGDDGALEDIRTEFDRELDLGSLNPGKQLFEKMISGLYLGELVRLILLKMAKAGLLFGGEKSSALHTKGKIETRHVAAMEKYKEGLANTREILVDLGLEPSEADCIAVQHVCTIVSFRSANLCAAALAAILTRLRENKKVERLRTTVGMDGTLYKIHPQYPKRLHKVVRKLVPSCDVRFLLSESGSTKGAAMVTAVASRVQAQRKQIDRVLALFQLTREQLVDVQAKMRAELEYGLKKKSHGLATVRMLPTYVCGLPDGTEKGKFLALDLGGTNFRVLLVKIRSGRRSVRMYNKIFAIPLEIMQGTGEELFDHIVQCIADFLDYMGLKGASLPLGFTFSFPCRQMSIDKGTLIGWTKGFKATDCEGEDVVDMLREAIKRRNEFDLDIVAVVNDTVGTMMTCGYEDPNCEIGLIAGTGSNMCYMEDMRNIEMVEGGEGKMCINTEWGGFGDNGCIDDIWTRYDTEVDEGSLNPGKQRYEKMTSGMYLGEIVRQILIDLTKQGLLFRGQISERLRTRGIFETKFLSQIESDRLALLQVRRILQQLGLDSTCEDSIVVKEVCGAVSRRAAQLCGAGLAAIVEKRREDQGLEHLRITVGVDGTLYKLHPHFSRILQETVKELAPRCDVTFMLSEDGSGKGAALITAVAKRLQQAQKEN

[1] = biological target: T1, Voltage-gated N-type calcium channel alpha-1B subunit/Amyloid beta A4 precursor protein-binding family A member 1 (Homo sapiens, UniProt Q00975+Q02410); assay type: protein assay
T1 sequence (Q00975 whole entry): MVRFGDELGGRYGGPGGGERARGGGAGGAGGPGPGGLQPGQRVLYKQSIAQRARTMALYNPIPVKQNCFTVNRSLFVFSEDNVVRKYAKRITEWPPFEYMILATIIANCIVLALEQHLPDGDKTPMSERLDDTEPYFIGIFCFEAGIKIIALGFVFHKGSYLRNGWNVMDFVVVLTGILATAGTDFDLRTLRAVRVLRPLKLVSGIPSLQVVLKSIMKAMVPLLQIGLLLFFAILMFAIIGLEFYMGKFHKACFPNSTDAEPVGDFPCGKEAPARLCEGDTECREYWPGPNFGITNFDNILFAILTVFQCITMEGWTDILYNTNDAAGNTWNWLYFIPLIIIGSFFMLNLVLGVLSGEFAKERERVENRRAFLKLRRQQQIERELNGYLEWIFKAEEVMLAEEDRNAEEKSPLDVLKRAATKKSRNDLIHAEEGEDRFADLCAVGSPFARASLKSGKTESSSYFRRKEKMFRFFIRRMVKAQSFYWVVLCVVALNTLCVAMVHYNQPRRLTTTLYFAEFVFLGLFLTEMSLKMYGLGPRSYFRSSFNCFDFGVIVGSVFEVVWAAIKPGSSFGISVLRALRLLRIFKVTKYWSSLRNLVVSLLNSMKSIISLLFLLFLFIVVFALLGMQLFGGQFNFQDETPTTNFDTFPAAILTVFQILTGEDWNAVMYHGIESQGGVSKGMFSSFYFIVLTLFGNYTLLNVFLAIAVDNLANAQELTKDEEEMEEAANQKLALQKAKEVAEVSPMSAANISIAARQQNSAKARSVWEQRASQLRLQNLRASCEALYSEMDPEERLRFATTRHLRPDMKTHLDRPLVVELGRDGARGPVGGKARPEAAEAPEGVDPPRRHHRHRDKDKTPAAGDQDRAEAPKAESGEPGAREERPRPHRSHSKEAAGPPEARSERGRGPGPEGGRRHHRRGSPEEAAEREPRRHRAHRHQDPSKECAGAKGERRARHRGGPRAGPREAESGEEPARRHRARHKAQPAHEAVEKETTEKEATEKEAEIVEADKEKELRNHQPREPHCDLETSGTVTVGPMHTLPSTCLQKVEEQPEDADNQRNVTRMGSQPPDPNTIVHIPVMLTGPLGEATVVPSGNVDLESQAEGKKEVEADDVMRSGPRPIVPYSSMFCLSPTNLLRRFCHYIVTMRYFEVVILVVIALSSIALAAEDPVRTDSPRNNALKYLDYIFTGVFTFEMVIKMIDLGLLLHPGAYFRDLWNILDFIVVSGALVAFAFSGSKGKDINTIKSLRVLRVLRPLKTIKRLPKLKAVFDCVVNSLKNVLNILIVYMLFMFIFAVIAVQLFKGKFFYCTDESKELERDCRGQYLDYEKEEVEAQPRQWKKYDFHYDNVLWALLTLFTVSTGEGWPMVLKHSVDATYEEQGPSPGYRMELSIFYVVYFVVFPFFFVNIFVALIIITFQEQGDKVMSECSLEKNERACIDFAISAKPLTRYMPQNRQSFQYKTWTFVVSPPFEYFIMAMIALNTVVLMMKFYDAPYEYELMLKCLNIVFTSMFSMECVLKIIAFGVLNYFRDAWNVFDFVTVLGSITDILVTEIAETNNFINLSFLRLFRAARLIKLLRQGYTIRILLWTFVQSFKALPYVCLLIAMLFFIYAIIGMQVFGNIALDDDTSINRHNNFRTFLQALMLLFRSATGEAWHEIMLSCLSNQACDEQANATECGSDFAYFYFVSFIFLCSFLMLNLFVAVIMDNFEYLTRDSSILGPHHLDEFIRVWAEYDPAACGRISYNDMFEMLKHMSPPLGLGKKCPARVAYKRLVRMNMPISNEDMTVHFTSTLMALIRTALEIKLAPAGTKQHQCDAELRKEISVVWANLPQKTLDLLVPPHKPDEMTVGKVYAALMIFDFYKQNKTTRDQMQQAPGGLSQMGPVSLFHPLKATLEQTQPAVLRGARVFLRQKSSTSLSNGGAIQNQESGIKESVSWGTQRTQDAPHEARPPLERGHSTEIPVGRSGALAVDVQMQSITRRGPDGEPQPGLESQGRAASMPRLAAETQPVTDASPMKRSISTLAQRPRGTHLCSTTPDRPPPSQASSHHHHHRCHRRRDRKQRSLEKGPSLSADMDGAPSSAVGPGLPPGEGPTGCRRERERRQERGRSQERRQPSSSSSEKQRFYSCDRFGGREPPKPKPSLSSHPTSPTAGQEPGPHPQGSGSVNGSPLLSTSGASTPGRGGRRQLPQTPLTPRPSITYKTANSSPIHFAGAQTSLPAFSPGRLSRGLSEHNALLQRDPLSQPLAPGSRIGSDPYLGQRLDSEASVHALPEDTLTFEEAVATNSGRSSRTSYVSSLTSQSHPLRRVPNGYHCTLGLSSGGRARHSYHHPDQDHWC
T1 sequence (Q02410 whole entry): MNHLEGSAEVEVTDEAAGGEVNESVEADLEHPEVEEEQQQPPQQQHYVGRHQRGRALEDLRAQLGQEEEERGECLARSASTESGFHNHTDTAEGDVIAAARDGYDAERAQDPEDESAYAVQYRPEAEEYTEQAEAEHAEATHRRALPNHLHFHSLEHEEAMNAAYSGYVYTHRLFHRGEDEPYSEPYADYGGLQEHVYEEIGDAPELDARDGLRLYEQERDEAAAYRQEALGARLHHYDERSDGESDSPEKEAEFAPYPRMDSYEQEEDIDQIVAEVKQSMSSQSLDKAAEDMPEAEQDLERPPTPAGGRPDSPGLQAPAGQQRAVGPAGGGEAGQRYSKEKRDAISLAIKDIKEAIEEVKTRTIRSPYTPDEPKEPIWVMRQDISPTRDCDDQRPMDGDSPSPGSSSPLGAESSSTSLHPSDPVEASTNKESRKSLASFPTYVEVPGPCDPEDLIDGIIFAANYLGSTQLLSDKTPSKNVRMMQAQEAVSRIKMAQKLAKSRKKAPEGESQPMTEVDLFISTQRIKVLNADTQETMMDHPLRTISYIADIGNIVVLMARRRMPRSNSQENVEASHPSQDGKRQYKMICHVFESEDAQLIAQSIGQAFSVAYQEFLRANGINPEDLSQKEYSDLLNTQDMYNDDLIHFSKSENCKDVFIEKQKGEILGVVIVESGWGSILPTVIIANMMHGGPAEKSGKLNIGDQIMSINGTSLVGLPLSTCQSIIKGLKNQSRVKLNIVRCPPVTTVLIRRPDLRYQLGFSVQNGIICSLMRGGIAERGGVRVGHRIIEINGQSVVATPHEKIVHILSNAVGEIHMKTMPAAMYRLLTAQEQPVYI

INS1 = assay: INS-1E survival protection against cytokine death – cell-based, luminescence, retest, dose response (AID 449756); assay type: functional; conditions: Rattus norvegicus;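 further: cell death triggered by IL-1 beta plus TNF-alpha plus IFN-gamma mixture; protective hits raise ATP signal compared with cytokine alone wells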
Beta Lactamase = Beta Lactamase (Pseudomonas aeruginosa, UniProt Q932Y6); assay: BLA reporter interference, concentration series – BLA reporter cells, FRET fluorescence, artefact control for TLR9-MyD88 binding inhibitor project, dose response (AID 588341); assay type: cell-based;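 further: cell based assay in CHO-K1 cells stably expressing beta-lactamase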
[2] = DRD fibroblast viability loss – cell-based, non-viral oncogenic, luminescence, dose response (AID 1934); assay type: functional; conditions: Homo sapiens
[3] = biological target: Luciferin 4-monooxygenase (Photinus pyralis, UniProt P08659); assay: inhibition of purified Photinus pyralis luciferase – biochemical, luminescence, dose response (AID 1891)
[4] = Luminescence Cell-Based Dose Confirmation HTS to Identify Activators of 5'UTR Stem-Loop Driven Alpha-Synuclein mRNA Translation in H4 Neuroglioblastoma Cells. [Related pubchem assays: 1829 (Project Summary), 1814 (Primary HTS)]; assay type: functional
[5] = biological target: Sphingosine 1-phosphate receptor 1 (Homo sapiens, UniProt P21453); assay type: functional;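 further: Tango beta-arrestin reporter U2OS cells stimulated with S1P near its EC80; inhibitor potency meaning antagonism of receptor activation by the natural agonist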
Chain of Sphingosine 1-phosphate receptor 1 (P21453 whole entry): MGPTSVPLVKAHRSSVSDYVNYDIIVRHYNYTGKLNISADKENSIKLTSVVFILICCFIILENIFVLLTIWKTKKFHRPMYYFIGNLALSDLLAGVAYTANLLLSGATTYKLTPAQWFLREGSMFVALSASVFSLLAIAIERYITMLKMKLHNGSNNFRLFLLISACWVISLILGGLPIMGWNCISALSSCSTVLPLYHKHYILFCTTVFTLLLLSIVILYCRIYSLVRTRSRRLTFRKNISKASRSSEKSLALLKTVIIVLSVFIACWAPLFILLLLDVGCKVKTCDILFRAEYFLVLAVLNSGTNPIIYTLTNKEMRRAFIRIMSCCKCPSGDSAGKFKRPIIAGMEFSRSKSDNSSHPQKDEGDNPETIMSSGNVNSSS

BJ [6] = assay: growth inhibition of engineered Ras-driven BJ cells – cell-based, alamar blue fluorescence, cherrypicked samples, dose response (AID 2631); assay type: functional; conditions: Homo sapiens;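 further: confirmatory dose-response assay in RAS-dependent BJ fibroblasts engineered with TERT, LT and ST, with cytotoxicity read by fluorescence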
[7] = biological target: T2, Kappa-type opioid receptor (Homo sapiens, UniProt P41145); assay type: functional
T2 sequence (P41145 whole entry): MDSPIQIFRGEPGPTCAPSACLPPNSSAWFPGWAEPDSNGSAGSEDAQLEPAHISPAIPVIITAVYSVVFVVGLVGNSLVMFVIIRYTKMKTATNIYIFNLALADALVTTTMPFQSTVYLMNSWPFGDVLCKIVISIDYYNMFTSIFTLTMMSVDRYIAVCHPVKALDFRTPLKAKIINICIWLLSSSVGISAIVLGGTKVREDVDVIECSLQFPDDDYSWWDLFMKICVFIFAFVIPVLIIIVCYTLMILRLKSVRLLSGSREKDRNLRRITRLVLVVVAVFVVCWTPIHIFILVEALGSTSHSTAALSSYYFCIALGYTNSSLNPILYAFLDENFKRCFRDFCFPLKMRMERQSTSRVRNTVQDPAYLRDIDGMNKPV

BJ [8] = assay: BJ-TERT-LT-ST fibroblast viability loss – cell-based, RAS-independent, luminescence, dose response (AID 1935); assay type: functional; conditions: Homo sapiens;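 further: BJ fibroblasts immortalized with TERT plus LT and ST oncogenes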
[9] = Luminescence Cell-Based Dose Confirmation HTS to Identify Inhibitors of Platelet Dense Granule Release. [Related pubchem assays: 1663 (Primary HTS), 1678 (Summary of Project)]; assay type: functional
[10] = biological target: T1, Voltage-gated N-type calcium channel alpha-1B subunit/Amyloid beta A4 precursor protein-binding family A member 1; assay type: protein assay; remark: listed apart in the source
[11] = biological target: Glucose-6-phosphate 1-dehydrogenase (Homo sapiens, UniProt P11413); assay: inhibition of Homo sapiens G6PD, dose series – biochemical, fluorescence, selectivity assay for P. falciparum G6PD inhibitor project, dose response (AID 504792); assay type: functional
H4 = assay: Luminescence Cell-Based Dose Response HTS to Identify Activators of 5'UTR Stem-Loop Driven Prion Protein mRNA Translation in H4 Neuroglioblastoma Cells. [Related pubchem assays: 1829 (Project Summary), 1814 (Primary HTS)]; assay type: functional; conditions: Homo sapiens
[12] = Luminescence Cell-Based Dose Response HTS to Identify Activators of Luciferase Translation or Activity in H4 […] Cells. [Related pubchem assays: 1829 (Project Summary), 1814 (Primary HTS)]; assay type: functional
BJ [13] = assay: cells; assay type: functional, cell-based; conditions: Homo sapiens
[14] = biological target: Heat shock protein HSP 90-alpha (Homo sapiens, UniProt P07900); assay type: functional, organism-based
[15] = biological target: T3, Heat shock factor protein 1 (Mus musculus, UniProt P38532); assay: decrease of HSF1-responsive luciferase luminescence – cell-based, NIH3T3, dose retest, confirmation (AID 2382); assay type: functional;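 further: NIH3T3 fibroblasts with HSF1-driven luciferase reporter stressed by proteasome inhibitor MG132; luminescence from HSF1-driven luciferase expression after 8 hours of MG132 stress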
T3 sequence (P38532 whole entry): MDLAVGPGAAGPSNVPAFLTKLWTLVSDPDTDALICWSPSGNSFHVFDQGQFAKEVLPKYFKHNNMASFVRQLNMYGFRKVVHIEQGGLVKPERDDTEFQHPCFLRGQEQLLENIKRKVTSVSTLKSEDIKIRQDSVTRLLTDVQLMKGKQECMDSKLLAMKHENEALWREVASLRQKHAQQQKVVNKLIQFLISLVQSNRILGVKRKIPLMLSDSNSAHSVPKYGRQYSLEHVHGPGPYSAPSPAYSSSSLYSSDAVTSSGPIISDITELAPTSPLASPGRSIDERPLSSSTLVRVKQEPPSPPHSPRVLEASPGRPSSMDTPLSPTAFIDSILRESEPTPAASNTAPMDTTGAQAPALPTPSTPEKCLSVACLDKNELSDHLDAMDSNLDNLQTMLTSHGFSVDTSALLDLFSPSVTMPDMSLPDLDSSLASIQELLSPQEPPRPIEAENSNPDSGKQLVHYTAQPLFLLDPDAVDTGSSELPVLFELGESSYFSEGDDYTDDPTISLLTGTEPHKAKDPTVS

Vero = assay: viability of Vero cells under compound – cytotoxicity control for flavivirus capping enzyme inhibitors (AID 588742); assay type: functional; conditions: Chlorocebus sabaeus
BJ [16] = assay: BJ-TERT fibroblast viability loss – cell-based, RAS-independent, luminescence, dose response (AID 1933); assay type: functional; conditions: Homo sapiens
[17] = biological target: Induced myeloid leukemia cell differentiation protein Mcl-1 (Homo sapiens, UniProt Q07820); assay type: functional
CHO = CHO cell viability loss, potency – luminescence, cytotoxicity control for TLR9-MyD88 binding inhibitor project, dose response (AID 588339); assay type: functional, cell-based, hamster; conditions: Cricetulus griseus;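 further: CHO cells stably coexpressing TLR9 and MyD88 fusions from primary screen; compound exposure lasted 48 hours before viability readout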
Beta-galactosidase = Beta-galactosidase (Escherichia coli, UniProt Q8VNN2); assay type: functional
[18] = biological target: DNA dC->dU-editing enzyme APOBEC-3G (Homo sapiens, UniProt Q9HC16); assay: Dose Response confirmation of small molecule APOBEC3G DNA Deaminase Inhibitors via a fluorescence-based single-stranded DNA deaminase assay. [Related pubchem assays (depositor defined):AID493012, AID493028]; assay type: functional
[19] = biological target: T4, Sphingosine 1-phosphate receptor 4 (Homo sapiens, UniProt O95977); assay: Fluorescence dose response cell-based high throughput screening assay for antagonists of the Sphingosine 1-Phosphate Receptor 4 (S1P4). [Related pubchem assays: 1524 (Confirmation in triplicates.), 1510 (Primary screen.)]; assay type: functional
T4 sequence (O95977 whole entry): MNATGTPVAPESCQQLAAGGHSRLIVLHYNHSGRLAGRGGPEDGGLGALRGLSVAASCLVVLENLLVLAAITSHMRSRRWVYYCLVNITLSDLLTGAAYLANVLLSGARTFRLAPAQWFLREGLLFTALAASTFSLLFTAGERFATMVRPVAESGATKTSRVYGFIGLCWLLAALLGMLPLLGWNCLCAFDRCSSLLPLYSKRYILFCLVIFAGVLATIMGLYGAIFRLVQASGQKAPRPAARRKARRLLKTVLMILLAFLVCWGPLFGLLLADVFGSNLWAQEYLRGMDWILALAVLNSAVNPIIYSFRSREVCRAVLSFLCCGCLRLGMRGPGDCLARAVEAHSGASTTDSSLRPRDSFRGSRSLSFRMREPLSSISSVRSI

[20] = HEK-293T viability loss after treatment – luminescence, T-cell screen hits, cytotoxicity control for TCR NF-kB inhibitor project, dose response (AID 489026); assay type: functional, cell-based;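 further: cells exposed to compound about 14 hours before the viability readout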
Beta-arrestin-1 = Beta-arrestin-1 (Homo sapiens, UniProt P49407); assay: beta-arrestin/AP2 interaction blockers, potency – biochemical, cherry pick 1, beta2-adaptin appendage, flow cytometry, dose response (AID 588783); assay type: functional
[21] = biological target: T2, Kappa-type opioid receptor; assay type: functional; remark: listed apart in the source
Genome polyprotein = Genome polyprotein (dengue virus type 2, UniProt P29990); assay: flavivirus cap methylation enzyme inhibition – biochemical, confirmation dose response, primary screen (AID 588689); assay type: functional
NIH3T3 = assay: mammalian cell viability counter-check – Alamar Blue, fluconazole, dry powder, cytotoxicity control for antifungal drug resistance project, dose response (AID 488809); assay type: functional, cell-based; conditions: Mus musculus
Candida albicans = assay: antifungal activity against resistant Candida strain – CaCi-8, fluconazole, Alamar Blue, dry powder, dose response (AID 488807); assay type: functional, organism-based

## Cc1ccc2nc(Nc3nc(O)cc(CSc4nnc(C)s4)n3)nc(C)c2c1
DNA topoisomerase
  AC50: 6.04 µM (active)

## COc1cc2c(cc1OC)-c1cc(NC(C)c3ccccc3)nc(=O)n1CC2 (centres undefined)
Hexokinase-1
  IC50: > 80 µM (inactive)
Hexokinase HKDC1
  IC50: > 80 µM (inactive)

## COc1ccc(OC)c2c1C(=O)C(Cl)=C(Cl)C2=O
[1]
  IC50: 9.53 µM (active)
INS1
  AC50: 6.17 µM (active)
Beta Lactamase
  IC50: 6.76 µM (active)
[2]
  EC50: 5.7 µM (inconclusive)
[3]
  EC50: > 112 µM (not active)
[4]
  EC50: > 120 µM (not active)
[5]
  IC50: 16.8 µM (not active)
BJ [6]
  EC50: 4.49 µM (active)
[7]
  IC50: 11.8 µM (active)
BJ [8]
  EC50: 5.05 µM (inconclusive)
[9]
  EC50: 11.7 µM (active)
[10]
  IC50: 0.331 µM (active)
[11]
  IC50: 27 µM (inactive)
H4
  EC50: > 120 µM (not active)
[12]
  EC50: > 60 µM (not active)
BJ [13]
  EC50: 5.3 µM (active)
[14]
  AC50: 3.03 µM (active)
[15]
  EC50: 4.56 µM (active)
Vero
  CC50: 14.1 µM (active)
BJ [16]
  EC50: 3.94 µM (inconclusive)
[17]
  IC50: 24.8 µM (active)
CHO
  IC50: 0.629 µM (active)
Beta-galactosidase
  EC50: > 31.5 µM (inactive)
[18]
  IC50: 7.17 µM (active)
[19]
  IC50: 2.02 µM (active)
[20]
  IC50: 48.3 µM (inactive)
Beta-arrestin-1
  IC50: 1.64 µM (active)
[21]
  IC50: > 32 µM
Genome polyprotein
  IC50: 5.23 µM (active)

## CCN(CC)C(=O)Cn1c2ccccc2c2nc3n(c(=O)c21)CCS3
NIH3T3
  AC50: 0.596 µM (active)
Candida albicans
  AC50: 6.14 µM (active)
